Residues, ends and D or L forms follow the SMILES beside them.

This assay deals with T1, Human insulin (HI) amyloid fibrillation (Homo sapiens, UniProt P01308).
T1 construct: Insulin is a covalent dimer of two polypeptide chains (chain A and chain B) having 21 and 30 amino acid residues, respectively
The assay can be described thus: ThT fluorescence assay of insulin fibrillation. The conditions noted are these: for IC50: 3-parameter dose response fit of normalized ThT intensity at 483 nm vs log [peptide], insulin incubated at 60°C for 72 h, 50 mM acetate buffer pH 2.0, peptide 0-750 μM, triplicates, read-out: IC50 against insulin aggregation; for percent inhibition of aggregation (ThT fluorescence): insulin incubated at 60°C for 72 h with peptide (Supplementary Figure S2), concentration not given. In kind it is biochemical. How it is done: Stock solution of insulin was prepared by dissolving insulin lyophilized powder in 50 mM acetate buffer, pH 2.0, and insulin concentration was determined by measuring absorbance at 276 nm, with the extinction coefficients of […] for 1 mg/ml. Fibrils were prepared by incubating insulin solution at 60°C for 72 h.
ThT stock solution was prepared by dissolving ThT in double distilled water, and the resulting solution was passed through a 0.2 micron millipore filter. The concentration of ThT was determined by measuring absorbance at 412 nm with a molar extinction coefficient of 36,600 M^−1cm^−1. ThT fluorescence assay was carried out on Shimadzu fluorescence spectrophotometer (RF-5301 PC). Insulin samples were incubated with or without peptides; from each set, samples were withdrawn at definite time intervals and mixed with ThT to have the final protein and dye concentration of 20 μM. The ThT was excited at 440 nm, and fluorescence spectra were recorded from 460 to 650 nm. Buffer (pH 2.0) was used for dilution, and spectra were corrected for the respective blanks. All measurements were performed in triplicates. All curves were fitted as described previously (Chaturvedi et al., [2015]).

T1 sequence (P01308 25-54 limits assumed): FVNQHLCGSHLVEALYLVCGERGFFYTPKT
T1 sequence (P01308 90-110 limits assumed): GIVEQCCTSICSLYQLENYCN

As to `CC(C)[C@H](N)C(=O)N[C@H](C(=O)N[C@H](C(=O)N[C@H](C(=O)N[C@H](C(=O)O)C(C)C)C(C)C)C(C)C)C(C)C` [Peptide P5, Val-Val-Val-Val-Val] (H-VVVVV-OH), the IC50 worked out at 446 µM and the “percent inhibition of aggregation (ThT fluorescence)” value came out at 56%.

Take `CC[C@H](C)[C@H](NC(=O)[C@@H](N)C(C)C)C(=O)N[C@@H](Cc1ccccc1)C(=O)N[C@@H](Cc1ccc(O)cc1)C(=O)N[C@H](C(=O)O)[C@@H](C)O` [Peptide P4, Val-Ile-Phe-Tyr-Thr] (H-VIFYT-OH): the IC50 was 278 µM and the “percent inhibition of aggregation (ThT fluorescence)” value was determined as 82%.

These data come from paper PMC6085999, “Elucidating the Inhibitory Potential of Designed Peptides Against Amyloid Fibrillation and Amyloid Associated Cytotoxicity” (Frontiers in Chemistry, 2018).
